Molecular target: T1, α4β7 integrin (Homo sapiens, UniProt P13612+P26010)
T1 construct: monitoring the capture of α4β7 integrin expressing cells on a recombinant MadCAM-1 extracellular domain-coated plate; endogenous in cells; host or cells: RPMI8866 cells
T1 sequence (P13612 34-1032): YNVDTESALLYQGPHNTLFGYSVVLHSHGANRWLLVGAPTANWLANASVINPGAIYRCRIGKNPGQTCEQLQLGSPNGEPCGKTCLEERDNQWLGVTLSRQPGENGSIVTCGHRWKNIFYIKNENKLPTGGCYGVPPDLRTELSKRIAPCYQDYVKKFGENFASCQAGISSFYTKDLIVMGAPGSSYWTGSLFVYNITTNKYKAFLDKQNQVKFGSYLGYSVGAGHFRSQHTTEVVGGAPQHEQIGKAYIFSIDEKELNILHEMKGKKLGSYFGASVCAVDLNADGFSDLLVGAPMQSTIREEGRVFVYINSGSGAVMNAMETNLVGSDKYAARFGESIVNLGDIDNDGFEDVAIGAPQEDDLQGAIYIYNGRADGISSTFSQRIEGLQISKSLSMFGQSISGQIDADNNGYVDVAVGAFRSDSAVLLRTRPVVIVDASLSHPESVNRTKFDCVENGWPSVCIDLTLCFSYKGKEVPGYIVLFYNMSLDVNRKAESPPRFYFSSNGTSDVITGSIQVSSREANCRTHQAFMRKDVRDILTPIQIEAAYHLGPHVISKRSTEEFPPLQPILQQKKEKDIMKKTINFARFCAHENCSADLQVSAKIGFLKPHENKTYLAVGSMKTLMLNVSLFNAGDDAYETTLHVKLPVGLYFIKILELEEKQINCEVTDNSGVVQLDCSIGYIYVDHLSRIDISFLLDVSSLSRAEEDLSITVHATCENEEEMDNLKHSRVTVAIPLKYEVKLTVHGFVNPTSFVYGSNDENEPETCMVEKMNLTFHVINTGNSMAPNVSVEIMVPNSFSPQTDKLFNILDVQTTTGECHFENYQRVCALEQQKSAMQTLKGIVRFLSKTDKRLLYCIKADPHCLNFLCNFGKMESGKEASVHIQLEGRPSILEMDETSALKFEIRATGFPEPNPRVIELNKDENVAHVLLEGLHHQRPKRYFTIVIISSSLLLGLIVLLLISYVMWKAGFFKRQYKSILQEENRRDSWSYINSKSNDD
T1 sequence (P26010 20-798): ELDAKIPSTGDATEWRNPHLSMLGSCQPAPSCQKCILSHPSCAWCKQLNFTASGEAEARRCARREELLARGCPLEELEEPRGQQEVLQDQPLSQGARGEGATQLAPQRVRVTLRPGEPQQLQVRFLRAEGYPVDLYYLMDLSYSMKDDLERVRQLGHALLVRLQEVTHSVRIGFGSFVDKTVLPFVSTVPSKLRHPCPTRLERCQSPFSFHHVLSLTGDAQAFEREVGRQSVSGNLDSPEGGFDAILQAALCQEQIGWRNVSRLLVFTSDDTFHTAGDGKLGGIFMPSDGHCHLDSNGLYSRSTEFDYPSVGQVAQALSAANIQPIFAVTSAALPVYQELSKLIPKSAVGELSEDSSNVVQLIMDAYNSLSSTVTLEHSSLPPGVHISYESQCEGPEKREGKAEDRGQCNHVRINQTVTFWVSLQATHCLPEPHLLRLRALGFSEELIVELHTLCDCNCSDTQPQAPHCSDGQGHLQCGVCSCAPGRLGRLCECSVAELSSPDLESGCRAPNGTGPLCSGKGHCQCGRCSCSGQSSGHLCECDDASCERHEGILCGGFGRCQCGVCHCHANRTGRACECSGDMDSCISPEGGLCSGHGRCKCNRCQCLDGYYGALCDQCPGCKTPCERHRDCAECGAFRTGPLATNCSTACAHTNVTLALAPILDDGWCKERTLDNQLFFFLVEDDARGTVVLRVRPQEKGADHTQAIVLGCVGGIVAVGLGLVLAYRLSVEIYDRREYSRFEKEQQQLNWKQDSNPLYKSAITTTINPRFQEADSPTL
Test: α4β7 Integrin Cell Capture Assay
Format: cell-based
Details: capture of α4β7 integrin expressing RPMI8866 cells on recombinant MadCAM-1 extracellular domain-coated plate; DMEM+0.5% FBS+0.5 mM MnCl2; read-out: EC50 α4β7
Method: α4β7 Integrin Cell Capture Assay
The potency of inhibitors in preventing α4β7 integrin interaction with MadCAM-1 was measured by monitoring the capture of α4β7 integrin expressing cells on a recombinant MadCAM-1 extracellular domain-coated plate.
384-Well plates (Corning 3702) were coated with MadCAM-1 extracellular domain by dispensing 20 μL of MAdCAM-1 at 1.0 μg/mL per well and incubating overnight at 4° C. The plates were then washed with PBS and blocked with 3% BSA for 2 hours before being washed again.
RPMI8866 cells were spun down and re-suspended in assay medium (DMEM+0.5% FBS+0.5 mM MnCl2) at a density of 0.5×10^6 cells/mL. The cells were then dispensed (60 μL/well) to a 384-well plate (Greiner 781280) that was previously spotted with 60 nL of test compound per well. The plates were incubated at 37° C. for 1 hour. 50 μL of cells were transferred to the blocked, MadCAM-1-coated plates and incubated for 30 minutes at 37° C. 10 μL of 12% glutaraldehyde containing Hoechst 33342 (0.06 mg/mL) was added to the cells (2% glutaraldehyde and 0.01 mg/mL final concentrations). The plates were incubated for 90 minutes at room temperature. The plates were then washed 3 times with 70 μL of PBS per well and imaged on a Cellomics ArrayScan instrument. The cells that were bound to the plate were counted and plotted against the compound concentration to determine the EC50 of the test compounds.

| EC50 [nM] | Structure (SMILES) |
| --- | --- |
| 30.2 | CCOCc1cc(OC)c(-c2ccc(CC(NC(=O)c3c(F)cc(NS(=O)(=O)c4ccc(-c5ccnc(F)c5)cc4)cc3F)C(=O)O)c3c2cnn3C)c(OC)c1 (stereo not shown) [Example 143, 2-(2,6-difluoro-4-((4-(2-fluoropyridin-4-yl)phenyl)sulfonamido)benzamido)-3-(4-(4-(ethoxymethyl)-2,6-dimethoxyphenyl)-1-methyl-1H-indazol-7-yl)propanoic acid] |
| 686 | O=C(N[C@@H](Cc1ccc(-c2ccc(F)cc2Cl)c2c(-c3ccc(F)cc3Cl)ccnc12)C(=O)O)c1c(F)cccc1F [Example 91, (S)-3-(4,5-bis(2-chloro-4-fluorophenyl)quinolin-8-yl)-2-(2,6-difluorobenzamido)propanoic acid] |
| 0.1 | Cc1c(-c2ccc(C[C@H](NC(=O)c3c(F)cc(N4CCOC[C@@H]4C(F)(F)F)cc3F)C(=O)O)c3ncccc23)c(=O)n(C)c2ccc(F)cc12 (single isomer, unassigned) [Example 88] |
| 89.4 | COc1cc(F)c(F)cc1-c1ccc(C[C@H](NC(=O)c2c(F)cccc2F)C(=O)O)c2nccc(Cl)c12 [Example 92, (S)-3-(4-chloro-5-(4,5-difluoro-2-methoxyphenyl)quinolin-8-yl)-2-(2,6-difluorobenzamido)propanoic acid] |
| 3 | Cc1cc(C(F)(F)F)c(-c2ccc(C[C@H](NC(=O)c3c(F)cc(N4CCOC[C@@H]4C(F)(F)F)cc3F)C(=O)O)c3ncccc23)c(=O)n1C (single isomer, unassigned) [Example 85] |
| 26 | CS(=O)(=O)Nc1cc(F)c(C(=O)N[C@@H](Cc2ccc(-c3c(Cl)cc(F)cc3Cl)c3cccnc23)C(=O)O)c(F)c1 [Example 4, (S)-3-(5-(2,6-dichloro-4-fluorophenyl)quinolin-8-yl)-2-(2,6-difluoro-4-(methylsulfonamido)benzamido)propanoic acid] |
| 15.2 | COc1cc(F)c(F)cc1-c1ccc(C[C@H](NC(=O)c2c(Cl)cccc2Cl)C(=O)O)c2nccc(Cl)c12 (single isomer, unassigned) [Example 95] |
| 836 | CCOCc1cc(OC)c(-c2cnc(C[C@H](NC(=O)c3c(F)cccc3F)C(=O)O)c3cccnc23)c(OC)c1 [Example 167, (S)-2-(2,6-difluorobenzamido)-3-(8-(4-(ethoxymethyl)-2,6-dimethoxyphenyl)-1,6-naphthyridin-5-yl)propanoic acid] |
| 37.8 | COc1cccc(OC)c1-c1ccc(C[C@@H](NC(=O)c2c(F)cc(NS(=O)(=O)c3ccc(-n4cncn4)cc3)cc2F)C(=O)O)c2ccncc12 (single isomer, unassigned) [Example 165] |
| 3.9 | Cn1c(=O)c(-c2ccc(C[C@H](NC(=O)c3c(Cl)cccc3Cl)C(=O)O)c3ccccc23)c(C(F)(F)F)c2ccccc21 [Example 121, (S)-2-(2,6-dichlorobenzamido)-3-(4-(1-methyl-2-oxo-4-(trifluoromethyl)-1,2-dihydroquinolin-3-yl)naphthalen-1-yl)propanoic acid] |
| 135 | O=C(N[C@@H](Cc1ccc(-c2c(Cl)cc(F)cc2Cl)c2nccnc12)C(=O)O)c1c(F)cccc1F [Example 156, (S)-3-(8-(2,6-dichloro-4-fluorophenyl)quinoxalin-5-yl)-2-(2,6-difluorobenzamido)propanoic acid] |
| 702 | O=C(N[C@@H](Cc1ccc(-c2c(Cl)cc(F)cc2Cl)c2cccnc12)C(=O)O)c1c(F)cc(N2CCOCC2C(F)(F)F)cc1F (single isomer, unassigned) [Example 5] |
| 49.5 | O=C(N[C@@H](Cc1ccc(-c2cccc3c2OCCC3)c2cccnc12)C(=O)O)c1c(Cl)cccc1Cl [Example 24, (S)-3-(5-(chroman-8-yl)quinolin-8-yl)-2-(2,6-dichlorobenzamido)propanoic acid] |
| 11.2 | COc1cnn(C)c(=O)c1-c1ccc(C[C@H](NC(=O)c2c(Cl)cccc2Cl)C(=O)O)c2ncccc12 [Example 72, (S)-2-(2,6-dichlorobenzamido)-3-(5-(5-methoxy-2-methyl-3-oxo-2,3-dihydropyridazin-4-yl)quinolin-8-yl)propanoic acid] |
| 20 | O=C(N[C@@H](Cc1ccc(-c2ncc3ccccc3c2Br)c2cccnc12)C(=O)O)c1c(Cl)cccc1Cl [Example 25, (S)-3-(5-(4-bromoisoquinolin-3-yl)quinolin-8-yl)-2-(2,6-dichlorobenzamido)propanoic acid] |
| 0.8 | CC[C@@H](Nc1cc(F)c(C(=O)N[C@@H](Cc2ccc(-c3c(OC)cnn(C)c3=O)c3ccccc23)C(=O)O)c(F)c1)C(F)(F)F (single isomer, unassigned) [Example 136] |
| 8.4 | COc1cnn(C)c(=O)c1-c1ccc(C[C@H](NC(=O)c2c(Cl)cccc2Cl)C(=O)O)c2ncccc12 (single isomer, unassigned) [Example 73] |
| 152 | COc1cc(F)cc(C(F)(F)F)c1-c1ccc(C[C@H](NC(=O)c2c(Cl)cccc2Cl)C(=O)O)c2ncccc12 (single isomer, unassigned) [Example 50] |
| 243 | COc1c(F)cccc1-c1ccc(C[C@H](NC(=O)c2c(Cl)cccc2Cl)C(=O)O)c2ncccc12 [Example 45, (S)-2-(2,6-dichlorobenzamido)-3-(5-(3-fluoro-2-methoxyphenyl)quinolin-8-yl)propanoic acid] |
| 1 | CC[C@@H](Nc1cc(F)c(C(=O)N[C@@H](Cc2ccc(-c3c(C(F)(F)F)cc(C)n(C)c3=O)c3ccccc23)C(=O)O)c(F)c1)C(F)(F)F (single isomer, unassigned) [Example 135] |
| 416 | Cc1c(-c2ccc(C[C@H](NC(=O)c3c(Cl)cccc3Cl)C(=O)O)c3ncccc23)c(C(F)(F)F)nn1C [Example 18, (S)-2-(2,6-dichlorobenzamido)-3-(5-(1,5-dimethyl-3-(trifluoromethyl)-1H-pyrazol-4-yl)quinolin-8-yl)propanoic acid] |
| 57.7 | O=C(N[C@@H](Cc1ccc(-c2cccc3scnc23)c2cccnc12)C(=O)O)c1c(Cl)cccc1Cl [Example 14, (S)-3-(5-(benzo[d]thiazol-4-yl)quinolin-8-yl)-2-(2,6-dichlorobenzamido) propanoic acid] |

Source: US11179383B2 (Gilead Sciences, Inc., priority 2018, dated 2021)
